≈ marks a conversion by molar mass, not a printed value. Where a name gives a salt, the structure may show the parent alone.
What was measured:
[1] = tested on: polychromatic erythrocytes (PCEs); assay: Micronucleus test, bone marrow of mice; assay type: in vivo, BDF 1 mice; conditions: percent of the number of MNPCEs per 1,000 PCEs; 250 mg/kg i.p., 24 h
Protocol: Nine-week-old male BDF 1 mice were used in this test. The test compounds were injected intraperitoneally with a dose of 250 mg/kg. After 24 h mice were sacrificed and the bone marrow of the femur was collected. Bone marrow smears were fixed on the slides with methanol and stained with Giemsa according to the usual method. For each animal, the number of micronucleated polychromatic erythrocytes (MNPCEs) per 1,000 polychromatic erythrocytes (PCEs) was counted under the microscope. Cyclophosphamide was used as a positive control.

[2] = tested on: CHL cells; assay: Chromosomal aberration test with a Chinese hamster lung cell line (CHL); assay type: cell-based
Protocol: The chromosomal aberration test was conducted with a Chinese hamster lung cell line (CHL). 2-(2-Furyl)-3-(5-nitro-2-furyl)acrylamide was used as a positive control. Cells treated with the test compounds were cultured for 6 h at 37° C. in 5% CO2 -humidified air. Following the 6 h treatment the cells were washed. Fresh medium was added to the washed cells and they were cultured for a further 18 h. Colcemide was added to the cultures 2 h before the fixation of chromosome preparation, in order to collect metaphase cells.

[3] = tested on: Male Hartley guinea pigs; assay type: in vivo; conditions: 10 mg/kg i.v.; for Phototoxicity: number of animals with erythemas/number of animals tested: UVA 90 minutes, 24 h after irradiation
Protocol: Male Hartley guinea pigs were intravenously administered test compounds at a dose of 10 mg/kg, and immediately exposed to UVA on their backs for 90 minutes.

[4] = tested on: Male Wistar rats; assay: Convulsions, intracerebroventricular (i.c.v.) administration with fenbufen; assay type: in vivo, rat; conditions: 20 μg i.c.v.
Protocol: Male Wistar rats weighing 180-220 g were anesthetized with sodium pentobarbital (45 mg/kg, i.p.) and fixed in a stereotaxic apparatus. For the intracerebroventricular injection, a 0.6 mm diameter stainless steel guide cannula was implanted in each rat, being positioned 1.5 mm above the left lateral cerebroventricle (A: 6.2, R: 1.0, H: +1.0), according to the atlas of De Groot (1959). The guide cannula was fixed with dental cement on the skull and it was closed with a 0.3 mm diameter stainless steel stylet. To prevent infection, 10,000 units of potassium penicillin G were injected intramuscularly. The rats were allowed a few days to recover from the surgery.
For the measurement of convulsions, 30 min after intraperitoneal injection of 50 mg/kg of fenbufen, 20 μg of the test compounds was given through a 0.3 mm diameter of stainless steel cannula with a polyethylene catheter, which was 1.5 mm longer than the guide cannula in order to be inserted into the […] cerebroventricle (H: +1.0). […] The position of the intracerebroventricular cannula was confirmed by the injection of 10 μl of 1% evans blue followed by sectioning of the brain of each rat which had been used in the experiment.

[5] = tested on: male ICR mice; assay: Convulsions, intraperitoneal (i.p.) administration with fenbufen
Protocol: Thirty minutes later, they were injected intraperitoneally with the test compounds at a dose of 100 mg/kg. Thereafter, the onset of convulsions was recorded.

[6] = tested on: S. aureus FDA 209P JC-1; assay: Antibacterial activity, MIC by agar dilution; assay type: cell-based; conditions: Staphylococcus aureus, FDA209P; laboratory standard strain, gram +
Description: (§1) The strains employed were as follows:
(§2) Staphylococcus aureus (S. aureus)

[7] = tested on: S. aureus HPC292; assay: Antibacterial activity, MIC by agar dilution; assay type: cell-based; conditions: Staphylococcus aureus, clinically isolated strain, gram +
Description: as §1, §2

[8] = tested on: S. aureus HPC308; assay: Antibacterial activity, MIC by agar dilution; assay type: cell-based; conditions: Staphylococcus aureus, clinically isolated strain, gram +
Description: as §1, §2

[9] = tested on: S. aureus HPC527; assay: Antibacterial activity, MIC by agar dilution; assay type: cell-based; conditions: Staphylococcus aureus, clinically isolated strain, gram +
Description: as §1, §2

[10] = tested on: E. coli NIHJ JC-2; assay: Antibacterial activity, MIC by agar dilution; assay type: cell-based; conditions: Escherichia coli, NIHJJC2; laboratory standard strain, gram -
Description: as §1
Escherichia coli (E. coli)

[11] = tested on: K. pneumoniae HNR828; assay: Antibacterial activity, MIC by agar dilution; assay type: cell-based; conditions: Klebsiella pneumoniae, clinically isolated strain, gram -
Description: as §1
(§3) Klebsiella pneumoniae (K. pneumoniae)

[12] = tested on: K. pneumoniae HNR858; assay: Antibacterial activity, MIC by agar dilution; assay type: cell-based; conditions: Klebsiella pneumoniae, clinically isolated strain, gram -
Description: as §1, §3

[13] = tested on: K. pneumoniae HNR869; assay: Antibacterial activity, MIC by agar dilution; assay type: cell-based; conditions: Klebsiella pneumoniae, clinically isolated strain, gram -
Description: as §1, §3

[14] = tested on: K. pneumoniae PCI-602; assay: Antibacterial activity, MIC by agar dilution; assay type: cell-based; conditions: Klebsiella pneumoniae, PCI602; laboratory standard strain, gram -
Description: as §1, §3

[15] = tested on: S. marcescens HNR1544; assay: Antibacterial activity, MIC by agar dilution; assay type: cell-based; conditions: Serratia marcescens, clinically isolated strain, gram -
Description: as §1
(§4) Serratia marcescens (S. marcescens)

[16] = tested on: S. marcescens HNR1767; assay: Antibacterial activity, MIC by agar dilution; assay type: cell-based; conditions: Serratia marcescens, clinically isolated strain, gram -
Description: as §1, §4

[17] = tested on: S. marcescens HNR1792; assay: Antibacterial activity, MIC by agar dilution; assay type: cell-based; conditions: Serratia marcescens, clinically isolated strain, gram -
Description: as §1, §4

[18] = tested on: S. marcescens IAM 1184; assay: Antibacterial activity, MIC by agar dilution; assay type: cell-based; conditions: Serratia marcescens, IAM1184; laboratory standard strain, gram -
Description: as §1, §4

[19] = tested on: E. cloacae 963; assay: Antibacterial activity, MIC by agar dilution; assay type: cell-based; conditions: Enterobacter cloacae, laboratory standard strain, gram -
Description: as §1
(§5) Enterobacter cloacae (E. cloacae)

[20] = tested on: E. cloacae HNR1939; assay: Antibacterial activity, MIC by agar dilution; assay type: cell-based; conditions: Enterobacter cloacae, clinically isolated strain, gram -
Description: as §1, §5

[21] = tested on: E. cloacae HNR1941; assay: Antibacterial activity, MIC by agar dilution; assay type: cell-based; conditions: Enterobacter cloacae, clinically isolated strain, gram -
Description: as §1, §5

[22] = tested on: E. cloacae HNR1946; assay: Antibacterial activity, MIC by agar dilution; assay type: cell-based; conditions: Enterobacter cloacae, clinically isolated strain, gram -
Description: as §1, §5

[23] = tested on: E. faecalis HPC948; assay: Antibacterial activity, MIC by agar dilution; assay type: cell-based; conditions: Enterococcus faecalis, clinically isolated strain, gram +
Description: as §1
(§6) Enterococcus faecalis (E. faecalis)

[24] = tested on: E. faecalis HPC975; assay: Antibacterial activity, MIC by agar dilution; assay type: cell-based; conditions: Enterococcus faecalis, clinically isolated strain, gram +
Description: as §1, §6

[25] = tested on: E. faecalis HPC984; assay: Antibacterial activity, MIC by agar dilution; assay type: cell-based; conditions: Enterococcus faecalis, clinically isolated strain, gram +
Description: as §1, §6

[26] = tested on: A. calcoaceticus HNR904; assay: Antibacterial activity, MIC by agar dilution; assay type: cell-based; conditions: Acinetobacter calcoaceticus, clinically isolated strain, gram -
Description: as §1
(§7) Acinetobacter calcoaceticus (A. calcoaceticus)

[27] = tested on: A. calcoaceticus HNR916; assay: Antibacterial activity, MIC by agar dilution; assay type: cell-based; conditions: Acinetobacter calcoaceticus, clinically isolated strain, gram -
Description: as §1, §7

[28] = tested on: A. calcoaceticus HNR939; assay: Antibacterial activity, MIC by agar dilution; assay type: cell-based; conditions: Acinetobacter calcoaceticus, clinically isolated strain, gram -
Description: as §1, §7

| Structure (SMILES) | Phototoxicity: number of animals with erythemas/number of animals tested [3] | MIC [6] | MIC [7] | MIC [8] | MIC [9] | MIC [10] | MIC [11] | MIC [12] | MIC [13] | MIC [14] | MIC [15] | MIC [16] | MIC [17] | MIC [18] | MIC [19] | MIC [20] | MIC [21] | MIC [22] | MIC [23] | MIC [24] | further results |
| --- | --- | --- | --- | --- | --- | --- | --- | --- | --- | --- | --- | --- | --- | --- | --- | --- | --- | --- | --- | --- | --- |
| O=P1(N(CCCl)CCCl)NCCCO1 (centres unmarked) [Cyclophosphamide, reference compound] | – | – | – | – | – | – | – | – | – | – | – | – | – | – | – | – | – | – | – | – | Incidence of MNPCEs [1]: 2.9% |
| Cc1c(N2CC[C@H](N)C2)c(F)cc2c(=O)c(C(=O)O)cn(C3CC3)c12 [Reference Compound F, 7-((S)-3-amino-1-pyrrolidinyl)-1-cyclopropyl-6-fluoro-1,4-dihydro-8-methyl-4-oxoquinoline-3-carboxylic acid] | 4/5 | – | – | – | – | – | – | – | – | – | – | – | – | – | – | – | – | – | – | – | toxicity (chromosomal aberration), in words [2]: observed; phototoxicity, in words ([3]; UVA): observed |
| Cc1c(N2CCNCC2)c(F)c(N)c2c(=O)c(C(=O)O)cn(C3CC3)c12 [Reference Compound I, 5-amino-1-cyclopropyl-6-fluoro-1,4-dihydro-8-methyl-4-oxo-7-piperazinylquinoline-3-carboxylic acid hydrochloride] | 0/5 | – | – | – | – | – | – | – | – | – | – | – | – | – | – | – | – | – | – | – | convulsions i.c.v., in words ([4]; fenbufen): observed; Convulsions i.c.v.: number of animals with convulsions/number of animals tested ([4]; fenbufen 50 mg/kg i.p.): 3/3; Convulsions i.p.: number of animals with convulsions/number of animals tested ([5]; 100 mg/kg i.p., fenbufen 100 mg/kg orally): 0/6; symptom of sedation ([5]; i.p. convulsion test): All of mice used for the test had a symptom of sedation |
| Cc1c(N2CCC(C)(N)C2)c(F)c(N)c2c(=O)c(C(=O)O)cn(C3CC3)c12 (centres unmarked) [Example 18, 5-Amino-7-(3-amino-3-methyl-1-pyrrolidinyl)-1-cyclopropyl-6-fluoro-1,4-dihydro-8-methyl-4-oxoquinoline-3-carboxylic acid] | – | 0.025 µg/mL | 6.25 µg/mL | 0.78 µg/mL | 0.05 µg/mL | 0.025 µg/mL (≈ 0.0668 µM) | 6.25 µg/mL (≈ 16.7 µM) | 0.39 µg/mL (≈ 1.04 µM) | 3.13 µg/mL (≈ 8.36 µM) | 6 ng/mL (≈ 0.016 µM) | 0.1 µg/mL (≈ 0.267 µM) | 25 µg/mL (≈ 66.8 µM) | 3.13 µg/mL (≈ 8.36 µM) | 0.2 µg/mL (≈ 0.534 µM) | 0.05 µg/mL (≈ 0.134 µM) | 0.39 µg/mL (≈ 1.04 µM) | 12.5 µg/mL (≈ 33.4 µM) | 0.39 µg/mL (≈ 1.04 µM) | 0.78 µg/mL | 3.13 µg/mL | MIC [25]: 0.2 µg/mL; MIC [26]: 12.5 µg/mL (≈ 33.4 µM); MIC [27]: 0.05 µg/mL (≈ 0.134 µM); MIC [28]: 0.78 µg/mL (≈ 2.08 µM) |
| Cc1c(N2C[C@@H](N)[C@@H](C)C2)c(F)c(N)c2c(=O)c(C(=O)O)cn(C3CC3)c12 (relative stereo) [Example 14, 5-Amino-7-(cis-3-amino-4-methyl-1-pyrrolidinyl)-1-cyclopropyl-6-fluoro-1,4-dihydro-8-methyl-4-oxoquinoline-3-carboxylic acid] | 0/5 | 0.012 µg/mL | 1.56 µg/mL | 0.39 µg/mL | 0.012 µg/mL | 0.012 µg/mL (≈ 0.032 µM) | 3.13 µg/mL (≈ 8.36 µM) | 0.2 µg/mL (≈ 0.534 µM) | 1.56 µg/mL (≈ 4.17 µM) | 6 ng/mL (≈ 0.016 µM) | 0.05 µg/mL (≈ 0.134 µM) | 6.25 µg/mL (≈ 16.7 µM) | 3.13 µg/mL (≈ 8.36 µM) | 0.2 µg/mL (≈ 0.534 µM) | 0.05 µg/mL (≈ 0.134 µM) | 0.2 µg/mL (≈ 0.534 µM) | 6.25 µg/mL (≈ 16.7 µM) | 0.2 µg/mL (≈ 0.534 µM) | 0.39 µg/mL | 1.56 µg/mL | MIC [25]: 0.2 µg/mL; MIC [26]: 3.13 µg/mL (≈ 8.36 µM); MIC [27]: 0.025 µg/mL (≈ 0.0668 µM); MIC [28]: 0.2 µg/mL (≈ 0.534 µM) |
